Values after ≈ are worked out from the molar mass of the structure shown. Like-named read-outs stand apart in the source and are kept apart here.
Legend:
Format in all cases: cell-based
[1] = tested on: Enterococcus faecalis ATCC 29212; experiment: MIC by microdilution in liquid medium (CLSI / CA-SFM); conditions: ATCC29212, E. faecalis ATCC 29212, reference strain, read-out: MIC
Text: (§1) According to the joint recommendations: • of the “Comite de l′Antibiogramme de la Société Française de Microbiologie” (Antibiogram Committee of the French Society of Microbiology) (CA-SFM) [CA-SFM. Communique 2007 (Edition of January 2007). http://www.sfm.asso.fr] and, • of the “Clinical and Laboratory Standards Institute” (CLSI, formerly “National Committee for Clinical Laboratory Standards” or NCCLS) [NCCLS. 2003. Methods for dilution antimicrobial susceptibility tests for bacteria that grow aerobically; approved standard M7-A6, 6th ed. National Committee for Clinical Laboratory Standards, Wayne, Pa., USA.], five reference bacterial strains were used for the study: Escherichia coli ATCC 25922, Pseudomonas aeruginosa ATCC 27853, Staphylococcus aureus ATCC 25923 & ATCC 29213 and Enterococcus faecalis ATCC 29212.
(§2) The bacteria are cultivated either on Mueller-Hinton agar (Difco, 225250), or in Mueller-Hinton broth (Difco, 275730), at 35° C. [Grare M, Mourer M, Fontanay S, Regnouf-de-Vains J B, Finance C, Duval R E. In vitro activity of para-guanidinoethylcalix[4]arene against susceptible and antibiotic-resistant Gram-negative and Gram-positive bacteria. J. Antimicrob Chemother. 2007; 60: 575-81].
(§3) The various molecules tested were prepared in the form of aqueous solution at 10^−2 mol/L. The solutions used for the biological tests are freshly prepared, and stored for a week at most, at 4° C. The solutions are filtered through a filter with pores of 0.22 μm (Millex®GP; 0.22 μm; Millipore; France) before each test.
(§4) Procedure for determining the Minimum Inhibitory Concentration (MIC)
(§5) The minimum inhibitory concentrations (MIC) were determined by the standardized method of microdilution in liquid medium (96-well microplate, U-shaped bottom, Greiner), in Mueller-Hinton broth, with a final inoculum of 10^5-10^6 CFU/mL, depending on the bacterial species, in accordance with the recommendations of the CLSI.
(§6) For the determination of MIC, bacterial suspensions are prepared from an isolated colony, taken from a Mueller-Hinton agar, taken up in 5 mL of Mueller-Hinton broth. After 24 h of growth, the bacterial suspensions are diluted in sterile distilled water in order to obtain an inoculum of 10^5-10^6 CFU/mL. The purity of the bacterial suspensions is tested by isolation on agar and Gram staining.
(§7) The results are the mean value of 4 independent experiments.

[2] = tested on: Escherichia coli ATCC 25922; experiment: as above
Text: as §1, §2, §3, §4, §5, §6, §7

[3] = tested on: Staphylococcus aureus ATCC 25923; experiment: as above
Text: as §1, §2, §3, §4, §5, §6, §7

[4] = tested on: Staphylococcus aureus ATCC 29213; experiment: as above; conditions: Staphylococcus aureus, ATCC29213, S. aureus ATCC 29213, reference strain; read-out: MIC
Text: as §1, §2, §3, §4, §5, §6, §7

[5] = tested on: Pseudomonas aeruginosa ATCC 27853; experiment: as above; conditions: ATCC27853, P. aeruginosa ATCC 27853, reference strain, read-out: MIC
Text: as §1, §2, §3, §4, §5, §6, §7

[6] = tested on: Gram-positive and Gram-negative bacteria (reference strains and clinical isolates); experiment: Antibacterial activity overall (MIC determination); conditions: summary of MIC results
Text: as §1
The study also included 5 clinical isolates, obtained from rectal samples and/or from haemoculture: • […] E. coli (EcR1), • methicillin-resistant S. aureus (mecA gene) (SaR1), • vancomycin-resistant E. faecium (vanB gene) (EfR1), • E. faecalis resistant to teicoplanin and to vancomycin (vanA gene) (EfR2), and • P. aeruginosa overexpressing an efflux pump (PaRl).
as §4, §5, §6, §7

[7] = Escherichia coli, ATCC25922, E. coli ATCC 25922, reference strain, read-out: MIC
[8] = Staphylococcus aureus, ATCC25923, S. aureus ATCC 25923, reference strain, read-out: MIC
[9] = S. aureus ATCC 25923, reference strain

MIC [1] | MIC [2, 7] | MIC [3, 8] | MIC [4] | MIC [5] | MIC [3, 9] | MIC ([2]; E. coli ATCC 25922, reference strain) | SMILES | antibacterial activity (in words) [6]
256 µg/mL (≈ 691 µM) | 64 µg/mL (≈ 173 µM) | 16 µg/mL (≈ 43.2 µM) | 8 µg/mL (≈ 21.6 µM) | 64 µg/mL (≈ 173 µM) |  |  | N=C(N)NCCc1ccc(OCOc2ccc(CCNC(=N)N)cc2)cc1 [compound 1, 1,1-bis(4-(2-guanidinoethyl)phenoxy)methane] | 
128 µg/mL (≈ 321 µM) | 32 µg/mL (≈ 80.3 µM) | 4 µg/mL (≈ 10 µM) | 2 µg/mL (≈ 5.02 µM) | 64 µg/mL (≈ 161 µM) |  |  | N=C(N)NCCc1ccc(OCCCOc2ccc(CCNC(=N)N)cc2)cc1 [compound 3, 1,3-bis(4-(2-guanidinoethyl)phenoxy)propane] | 
64 µg/mL (≈ 155 µM) | 32 µg/mL (≈ 77.6 µM) | 2 µg/mL (≈ 4.85 µM) | 1 µg/mL (≈ 2.42 µM) | 64 µg/mL (≈ 155 µM) |  |  | N=C(N)NCCc1ccc(OCCCCOc2ccc(CCNC(=N)N)cc2)cc1 [compound 4, 1,4-bis(4-(2-guanidinoethyl)phenoxy)butane] | 
8 µg/mL (≈ 17.6 µM) | 4 µg/mL (≈ 8.8 µM) | 1 µg/mL (≈ 2.2 µM) | 1 µg/mL (≈ 2.2 µM) | 16 µg/mL (≈ 35.2 µM) |  |  | N=C(N)NCCc1ccc(OCCCCCCCOc2ccc(CCNC(=N)N)cc2)cc1 [compound 7, 1,7-bis(4-(2-guanidinoethyl)phenoxy)heptane] | 
< 1 µg/mL | 1 to 2 µg/mL (≈ 2.01 to 4.03 µM) | < 1 µg/mL | < 1 µg/mL | 8 µg/mL (≈ 16.1 µM) |  |  | N=C(N)NCCc1ccc(OCCCCCCCCCCOc2ccc(CCNC(=N)N)cc2)cc1 [compound 10, 1,10-bis(4-(2-guanidinoethyl)phenoxy)decane] | 
256 µg/mL (≈ 695 µM) | 128 µg/mL (≈ 347 µM) | 32 µg/mL (≈ 86.8 µM) | 32 µg/mL (≈ 86.8 µM) | 128 µg/mL (≈ 347 µM) |  |  | N=C(N)CCc1ccc(OCCCOc2ccc(CCC(=N)N)cc2)cc1 [compound 103, 1,3-bis(4-(2-(amidino)ethyl)phenoxy)propane] | 
256 µg/mL (≈ 669 µM) | 64 µg/mL (≈ 167 µM) | 2 µg/mL (≈ 5.23 µM) | 2 µg/mL (≈ 5.23 µM) | 64 µg/mL (≈ 167 µM) |  |  | N=C(N)CCc1ccc(OCCCCOc2ccc(CCC(=N)N)cc2)cc1 [compound 104, 1,4-bis(4-(2-(amidino)ethyl)phenoxy)butane] | 
32 µg/mL (≈ 77.9 µM) | 32 µg/mL (≈ 77.9 µM) | 4 µg/mL (≈ 9.74 µM) | 2 µg/mL (≈ 4.87 µM) | 32 µg/mL (≈ 77.9 µM) | 2 (1) mg/L |  | N=C(N)CCc1ccc(OCCCCCCOc2ccc(CCC(=N)N)cc2)cc1 [compound 106, 1,6-bis(4-(2-(amidino)ethyl)phenoxy)hexane] | 
32 µg/mL (≈ 75.4 µM) | 64 µg/mL (≈ 151 µM) |  |  | 64 µg/mL (≈ 151 µM) |  |  | N=C(N)CCc1ccc(OCCCCCCCOc2ccc(CCC(=N)N)cc2)cc1 [compound 107, 1,7-bis(4-(2-(amidino)ethyl)phenoxy)heptane] | 
8 µg/mL (≈ 18.2 µM) | 32 µg/mL (≈ 73 µM) | 2 µg/mL (≈ 4.56 µM) |  | 16 µg/mL (≈ 36.5 µM) | 4 (1) mg/L |  | N=C(N)CCc1ccc(OCCCCCCCCOc2ccc(CCC(=N)N)cc2)cc1 [compound 108, 1,8-bis(4-(2-(amidino)ethyl)phenoxy)octane] | 
2 µg/mL (≈ 4.29 µM) | 4 µg/mL (≈ 8.57 µM) | 1 µg/mL (≈ 2.14 µM) | 1 µg/mL (≈ 2.14 µM) | 16 µg/mL (≈ 34.3 µM) |  | 8 (1) mg/L | N=C(N)CCc1ccc(OCCCCCCCCCCOc2ccc(CCC(=N)N)cc2)cc1 [compound 110, 1,10-bis(4-(2-(amidino)ethyl)phenoxy)decane] | 

SMILES | MIC [1] | MIC [2, 7] | MIC [3, 8] | MIC [4] | MIC [5] | MIC [3, 9] | MIC ([2]; E. coli ATCC 25922, reference strain) | antibacterial activity (in words) [6]
N=C(N)NCCc1ccc(OCCCCCCCCCOc2ccc(CCNC(=N)N)cc2)cc1 [compound 9, 1,9-bis(4-(2-guanidinoethyl)phenoxy)nonane] | 1 to 2 µg/mL (≈ 2.07 to 4.14 µM) | 1 µg/mL (≈ 2.07 µM) | 0.25 µg/mL (≈ 0.518 µM) | 0.25 µg/mL (≈ 0.518 µM) | 4 µg/mL (≈ 8.29 µM) |  |  | very good activities on the 5 reference strains tested

Source: patent US8703825B2, “Compounds, use thereof as medicaments, and method of preparation thereof” (Universite de Lorraine, priority 2008, dated 2014)
